Data taken from PubChem BioAssay (NCI).
Where “and” joins values, the source holds several entries; their conditions need not be identical. Equal entries are not always repeated.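 96-well plates; 48 h exposure; 5 concentrations. Endpoints by linear interpolation between flanking doses. Not reached: highest tested concentration assigned. GI50 is the concentration that inhibits growth by half. TGI is the concentration that stops growth completely.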

Experiments:
Assay in all cases: DTP human tumour cell line panel, 48 h
ACHN renal = system: ACHN renal
HT29 colon = system: HT29 colon
OVCAR-8 ovarian = system: OVCAR-8 ovarian
SK-MEL-28 melanoma = system: SK-MEL-28 melanoma
SNB-75 CNS = system: SNB-75 CNS
UACC-62 melanoma = system: UACC-62 melanoma
RPMI-8226 leukemia = system: RPMI-8226 leukemia
DU-145 prostate = system: DU-145 prostate
MDA-MB-435 = system: MDA-MB-435
NCI/ADR-RES ovarian = system: NCI/ADR-RES ovarian

Structure (SMILES) | TGI (ACHN renal) | TGI (HT29 colon) | TGI (OVCAR-8 ovarian) | TGI (SK-MEL-28 melanoma) | TGI (SNB-75 CNS) | TGI (UACC-62 melanoma) | TGI (RPMI-8226 leukemia) | TGI (DU-145 prostate) | TGI (MDA-MB-435) | GI50 (NCI/ADR-RES ovarian) | TGI (NCI/ADR-RES ovarian) | GI50 (ACHN renal) | GI50 (DU-145 prostate) | GI50 (HT29 colon) | GI50 (MDA-MB-435) | GI50 (OVCAR-8 ovarian) | GI50 (RPMI-8226 leukemia) | GI50 (SK-MEL-28 melanoma) | GI50 (UACC-62 melanoma) | GI50 (SNB-75 CNS)
CC1NOC(=O)C1N=Nc1ccc(Cl)cc1Cl (stereo not given) | 55.5 µM | > 100 µM | 72 µM | > 100 µM | 46.5 µM | > 100 µM | – | – | – | – | – | – | – | – | – | – | – | – | – | –
CCOC(=O)c1ccc(N=Nc2ccc(N(CCC#N)CCC#N)cc2C)cc1 | > 100 µM | > 100 µM | > 100 µM | – | – | > 100 µM | > 100 µM | – | – | – | – | – | – | – | – | – | – | – | – | –
CC(=O)O[C@H]1CC2C(C3CC[C@H](C(C)CCC(=O)O)[C@]31C)[C@H](OC(C)=O)C[C@@H]1CC3(CC[C@]21C)OOC1(CCC(C)CC1)OO3 (stereo not given in full) | 15.8 µM and 9.72 µM | 12.5 µM and 10.4 µM | 14.1 µM and 5.66 µM | 11.8 µM and 13.2 µM | 6.81 µM | – | 6.9 µM and 4.79 µM | 18 µM and 13.5 µM | 18.7 µM and 7.76 µM | 4.88 µM and 2.02 µM | 18.3 µM and 4.53 µM | – | – | – | – | – | – | – | – | –
OCC1CC[N-]CC1.OCC1CC[N-]CC1.[Cl][Pt+2]([Cl])([Cl])[Cl] | – | 51.7 µM | – | – | – | – | 53.1 µM | 61.5 µM | 64.9 µM | 33.8 µM | – | 38.8 µM | 20.8 µM | 17.1 µM | 24.4 µM | 31.1 µM | 15.2 µM | 60 µM | 29.4 µM | –
O=C(c1cccs1)c1c(C(F)(F)F)n([O-])c2cc(Cl)c(Cl)cc2[n+]1=O | 0.853 µM | > 100 µM | 3.47 µM | 4.61 µM | – | 2.54 µM | – | 2.68 µM | 3.12 µM | 1.05 µM | 2.55 µM | 0.423 µM | 0.872 µM | 0.405 µM | 1.5 µM | 1.46 µM | – | 1.88 µM | 1.18 µM | –
COC(=O)C1=C(C(=O)OC)C2(c3ccccc3)OC1(c1ccccc1)c1cc3ccccc3cc12 | 3.07 µM | 3.49 µM | 2.96 µM | 3.82 µM | 1.99 µM | 4.26 µM | 4.19 µM | – | – | – | – | – | – | – | – | – | – | – | – | –
COc1ccc(C(O)c2cc3c(N)c(C(=O)Nc4cccc5ccccc45)sc3nc2C)cc1 (stereo not given) | > 55.6 µM | – | > 100 µM | – | > 100 µM | > 53.2 µM | > 100 µM | 3.12 µM | 0.415 µM | 0.307 µM | > 50.5 µM | 0.55 µM | 0.348 µM | 0.35 µM | 0.127 µM | 0.373 µM | 4.17 µM | – | 0.627 µM | 0.39 µM
Cc1ccc(NC(=O)c2cc(S(=O)(=O)Nc3nnc(-c4ccccc4)c(-c4ccccc4)n3)c(SCc3ccccc3)cc2Cl)cc1 | 31.3 µM | – | 76.8 µM | > 100 µM | – | 31.2 µM | 44.8 µM | 37.9 µM | 35 µM | 20.4 µM | 41.2 µM | 17 µM | 20 µM | – | 15.9 µM | 29.4 µM | 11.8 µM | 29.5 µM | 16.3 µM | –
COCCN(CCOC)c1nc(-c2ccccc2)nc2ccccc12 | – | – | > 100 µM | > 100 µM | – | 34.9 µM | 36 µM | > 100 µM | 55.8 µM | 21.3 µM | 61.2 µM | – | 36.9 µM | – | 21.9 µM | 33.7 µM | 7.03 µM | 29.2 µM | 18.2 µM | –
S=C1SCN(Cc2ccccc2)CN1Cc1ccco1 | 17.3 µM | 13.9 µM | 32 µM | 20.1 µM | 21.9 µM | 18.7 µM | – | 9.61 µM | 10.4 µM | 17.9 µM | > 100 µM | 4.97 µM | 2.85 µM | 3.17 µM | 1.67 µM | 5.71 µM | – | 5.75 µM | 4.75 µM | 4.09 µM
COc1ccc2nc(NC(=O)C(=O)CC(=O)c3ccc([N+](=O)[O-])cc3)sc2c1 | > 100 µM | > 100 µM | > 100 µM | > 100 µM | > 100 µM | > 100 µM | > 100 µM | – | – | – | – | – | – | – | – | – | – | – | – | –
OC(c1ccccc1Br)(c1ccccc1Br)C(F)(F)F | 38.3 µM | 38.3 µM | > 100 µM | 95.5 µM | 85.2 µM | 57.7 µM | – | – | – | – | – | – | – | – | – | – | – | – | – | –
CCOC(=O)C1(C)CCC(C(C(=O)O)C(=O)O)CC1=O (stereo not given) | > 100 µM | > 100 µM | > 100 µM | > 100 µM | > 100 µM | > 100 µM | > 100 µM | – | – | – | – | – | – | – | – | – | – | – | – | –
COC12C(COC(=O)NCCO)C3=C(C(=O)C(C)=C(N)C3=O)N1CC1NC12 (stereo not given) | 142 µM | > 264 µM | > 264 µM | > 264 µM | – | 49.9 µM | > 264 µM | 236 µM | > 264 µM | – | > 264 µM | 13.3 µM | – | 52.7 µM | – | 55 µM | – | – | – | –
N#CC1CC(c2ccccc2)Nc2cc(Cl)ccc2N1 (stereo not given) | > 100 µM | > 76.2 µM | > 100 µM | > 100 µM | > 100 µM | > 100 µM | > 100 µM | – | – | – | – | – | – | – | – | – | – | – | – | –
CC(=O)OCC(=O)[C@@]1(O)CC[C@H]2[C@@H]3C[C@H](C)C4=CC(=O)C=C[C@]4(C)[C@@]3(F)[C@@H](O)C[C@@]21C | > 100 µM | > 100 µM | – | > 100 µM | > 100 µM | > 100 µM | > 100 µM | – | – | – | – | – | – | – | – | – | – | – | – | –
CCc1cccc(CC)c1NC(=O)/C(Cl)=C(/Cl)C(=O)O | 47.6 µM | 53.7 µM | 33.3 µM | 50.9 µM | > 81.6 µM | > 66.7 µM | > 79.4 µM | – | – | – | – | – | – | – | – | – | – | – | – | –
COc1cc(/C=C/c2csnn2)cc(OC)c1OC | > 100 µM | > 100 µM | > 100 µM | > 100 µM | – | > 100 µM | > 100 µM | – | – | – | – | – | – | – | – | – | – | – | – | –
N#Cc1ccc(Sc2nc3ccccc3[nH]2)cc1 | > 100 µM | > 100 µM | > 100 µM | > 100 µM | – | > 100 µM | – | – | – | – | – | – | – | – | – | – | – | – | – | –
[O]=[V]([OH])([OH])[OH] | > 100 µM | > 100 µM | > 100 µM | > 100 µM | > 100 µM | > 100 µM | – | > 100 µM | > 100 µM | > 100 µM | > 100 µM | > 100 µM | > 100 µM | > 100 µM | 79.2 µM | > 100 µM | – | > 100 µM | > 100 µM | > 100 µM
Nc1nc(=S)c2c(ncn2CCO)[nH]1 | > 100 µM | > 100 µM | > 100 µM | > 100 µM | > 100 µM | > 100 µM | > 100 µM | – | – | – | – | – | – | – | – | – | – | – | – | –
